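Briefly, cells in 96-well plates were exposed to five compound concentrations for 48 h, and endpoints were estimated by linear interpolation. At the GI50, growth is halved.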 The source made the active and inactive calls. No stated cut-off is given here; in the data, active = GI50 up to about 1.1 µM and inactive = higher.
Assays:
Assay in all cases: NCI anticancer screen, dose series, 48 h
[1] = test system: Malme-3M
[2] = test system: 786-0
[3] = test system: DU-145
[4] = test system: SW-620
[5] = test system: SF-295
[6] = test system: Hs-578T
[7] = test system: K562
[8] = test system: EKVX
[9] = test system: NCI-H522
[10] = test system: NCI-H226
[11] = test system: OVCAR-5
[12] = test system: M14
[13] = test system: MCF7
[14] = test system: U-251
[15] = test system: HCC 2998
[16] = test system: UO-31
[17] = test system: HOP-92
[18] = test system: MOLT-4
[19] = test system: A498
[20] = test system: SF-539
[21] = test system: OVCAR-3
[22] = test system: HT-29
[23] = test system: HOP-62
[24] = test system: SK-MEL-2
[25] = test system: LOX IMVI
[26] = test system: RXF 393
[27] = test system: NCI-H460
[28] = test system: OVCAR-4
[29] = test system: PC-3
[30] = test system: HL-60
[31] = test system: MDA-MB-435
[32] = test system: A549
[33] = test system: SN12C
[34] = test system: HCT-116
[35] = test system: NCI/ADR-RES
[36] = test system: SK-MEL-5
[37] = test system: RPMI-8226
[38] = test system: NCI-H23
[39] = test system: MDA-MB-231
[40] = test system: IGROV-1
[41] = test system: SR
[42] = test system: TK-10
[43] = test system: CCRF-CEM
[44] = test system: BT-549
[45] = test system: MDA-N
[46] = test system: HCT-15
[47] = test system: KM12
[48] = test system: CAKI-1
[49] = test system: COLO 205
[50] = test system: ACHN
[51] = test system: SNB-19
[52] = test system: SNB-75
[53] = test system: UACC-257
[54] = test system: UACC-62
[55] = test system: OVCAR-8
[56] = test system: SK-OV-3
[57] = test system: SK-MEL-28
[58] = test system: T47D

Compound: N#Cc1cc(C#N)c(N)nc1N
- GI50 [1]: > 100 µM (inactive)
- GI50 [2]: > 100 µM (inactive)
- GI50 [3]: 43.6 µM (inactive)
- GI50 [4]: > 100 µM (inactive)
- GI50 [5]: > 100 µM (inactive)
- GI50 [6]: > 100 µM (inactive)
- GI50 [7]: > 100 µM (inactive)
- GI50 [8]: > 100 µM (inactive)
- GI50 [9]: > 100 µM (inactive)
- GI50 [10]: > 100 µM (inactive)
- GI50 [11]: > 100 µM (inactive)
- GI50 [12]: > 100 µM (inactive)
- GI50 [13]: > 100 µM (inactive)
- GI50 [14]: > 100 µM (inactive)
- GI50 [15]: > 100 µM (inactive)
- GI50 [16]: > 100 µM (inactive)
- GI50 [17]: > 100 µM (inactive)
- GI50 [18]: > 100 µM (inactive)
- GI50 [19]: > 100 µM (inactive)
- GI50 [20]: > 100 µM (inactive)
- GI50 [21]: > 100 µM (inactive)
- GI50 [22]: > 100 µM (inactive)
- GI50 [23]: > 100 µM (inactive)
- GI50 [24]: > 100 µM (inactive)
- GI50 [25]: 29.9 µM (inactive)
- GI50 [26]: > 100 µM (inactive)
- GI50 [27]: > 100 µM (inactive)
- GI50 [28]: > 100 µM (inactive)
- GI50 [29]: > 100 µM (inactive)
- GI50 [30]: > 100 µM (inactive)
- GI50 [31]: > 100 µM (inactive)
- GI50 [32]: > 100 µM (inactive)
- GI50 [33]: > 100 µM (inactive)
- GI50 [34]: > 100 µM (inactive)
- GI50 [35]: > 100 µM (inactive)
- GI50 [36]: > 100 µM (inactive)
- GI50 [37]: > 100 µM (inactive)
- GI50 [38]: > 100 µM (inactive)
- GI50 [39]: > 100 µM (inactive)
- GI50 [40]: > 100 µM (inactive)
- GI50 [41]: 19.1 µM (inactive)
- GI50 [42]: > 100 µM (inactive)
- GI50 [43]: > 100 µM (inactive)
- GI50 [44]: > 100 µM (inactive)
- GI50 [45]: > 100 µM (inactive)
- GI50 [46]: > 100 µM
- GI50 [47]: > 100 µM (inactive)
- GI50 [48]: > 100 µM (inactive)
- GI50 [49]: > 100 µM (inactive)
- GI50 [50]: > 100 µM (inactive)
- GI50 [51]: > 100 µM (inactive)
- GI50 [52]: > 100 µM (inactive)
- GI50 [53]: > 100 µM (inactive)
- GI50 [54]: > 100 µM (inactive)
- GI50 [55]: > 100 µM (inactive)
- GI50 [56]: > 100 µM (inactive)

Compound: COc1cc(/C=C2\N=C(c3ccccc3)N(c3cc4cc(Sc5ccccc5)ccc4[nH]3)C2=O)ccc1O
- GI50 [1]: 1.43 µM (inactive)
- GI50 [2]: 9.59 µM (inactive)
- GI50 [3]: 11.7 µM (inactive)
- GI50 [4]: 3.58 µM (inactive)
- GI50 [7]: 1.97 µM (inactive)
- GI50 [8]: 22.1 µM (inactive)
- GI50 [9]: 1.86 µM (inactive)
- GI50 [10]: > 50 µM (inactive)
- GI50 [11]: > 50 µM (inactive)
- GI50 [12]: 3.65 µM (inactive)
- GI50 [13]: 0.255 µM (active)
- GI50 [15]: 5.82 µM (inactive)
- GI50 [16]: 15.6 µM (inactive)
- GI50 [17]: 6.12 µM (inactive)
- GI50 [18]: 2.49 µM (inactive)
- GI50 [19]: 0.102 µM (active)
- GI50 [20]: 5.14 µM (inactive)
- GI50 [57]: > 50 µM (inactive)
- GI50 [22]: 3.51 µM (inactive)
- GI50 [25]: 29.9 µM (inactive)
- GI50 [26]: 5.02 µM (inactive)
- GI50 [27]: 2.36 µM (inactive)
- GI50 [28]: 35 µM (inactive)
- GI50 [30]: 1.39 µM (inactive)
- GI50 [31]: 1.46 µM (inactive)
- GI50 [32]: > 50 µM (inactive)
- GI50 [33]: 7.87 µM (inactive)
- GI50 [34]: 2.11 µM (inactive)
- GI50 [35]: 3.13 µM (inactive)
- GI50 [36]: 2.54 µM (inactive)
- GI50 [38]: 18.5 µM (inactive)
- GI50 [40]: 3.28 µM (inactive)
- GI50 [41]: 2.12 µM (inactive)
- GI50 [43]: 2.69 µM (inactive)
- GI50 [44]: 13.6 µM (inactive)
- GI50 [45]: 1.07 µM (active)
- GI50 [46]: 2.86 µM
- GI50 [47]: > 50 µM (inactive)
- GI50 [48]: 11.1 µM (inactive)
- GI50 [49]: 2.35 µM (inactive)
- GI50 [50]: 7.46 µM (inactive)
- GI50 [51]: > 50 µM (inactive)
- GI50 [52]: 21.8 µM (inactive)
- GI50 [53]: 14.8 µM (inactive)
- GI50 [58]: 5.52 µM (inactive)
- GI50 [54]: 0.188 µM (active)
- GI50 [55]: 12.3 µM (inactive)

Source: ChEMBL document CHEMBL1201862, “PubChem BioAssay data set” (2004)
